Target: T1, Tyrosine-protein kinase receptor TYRO3 (Homo sapiens, UniProt Q06418)
T1 sequence (Q06418 whole entry): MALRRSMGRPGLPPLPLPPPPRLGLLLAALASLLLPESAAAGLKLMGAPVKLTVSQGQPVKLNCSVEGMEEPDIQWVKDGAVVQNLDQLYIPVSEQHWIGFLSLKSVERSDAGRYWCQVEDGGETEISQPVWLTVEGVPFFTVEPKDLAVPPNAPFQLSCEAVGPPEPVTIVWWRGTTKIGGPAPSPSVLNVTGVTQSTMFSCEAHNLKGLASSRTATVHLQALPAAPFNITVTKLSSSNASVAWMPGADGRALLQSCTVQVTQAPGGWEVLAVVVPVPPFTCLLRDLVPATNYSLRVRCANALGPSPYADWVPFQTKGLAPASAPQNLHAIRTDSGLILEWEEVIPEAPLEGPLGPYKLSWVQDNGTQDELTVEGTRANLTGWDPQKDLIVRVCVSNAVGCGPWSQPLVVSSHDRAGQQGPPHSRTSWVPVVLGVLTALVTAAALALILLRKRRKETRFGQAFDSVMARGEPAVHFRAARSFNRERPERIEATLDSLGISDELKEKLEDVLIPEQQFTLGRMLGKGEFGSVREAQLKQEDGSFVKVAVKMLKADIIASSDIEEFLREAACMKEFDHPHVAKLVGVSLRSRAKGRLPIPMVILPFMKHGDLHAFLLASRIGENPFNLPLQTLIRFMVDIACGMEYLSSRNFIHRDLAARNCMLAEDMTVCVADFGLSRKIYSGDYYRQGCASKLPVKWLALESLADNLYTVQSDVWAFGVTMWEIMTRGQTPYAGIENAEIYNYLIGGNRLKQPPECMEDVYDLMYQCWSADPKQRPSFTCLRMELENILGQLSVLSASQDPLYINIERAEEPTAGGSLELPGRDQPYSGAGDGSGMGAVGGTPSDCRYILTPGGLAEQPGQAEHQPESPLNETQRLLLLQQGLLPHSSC
Test: TAM Enzymatic Assay
Protocol: The kinase assay buffer contained 50 mM HEPES, pH7.5, 10 mM MgCl2, 1 mM EGTA, 0.01% NP-40 and 2 mM DTT. 0.1 ul test compounds dissolved in DMSO were transferred from compound plates to white 384-well assay plates (Greiner […] plates). The final concentration of DMSO was 1.25%. Enzyme solutions of 5.1 nM phosphor-Axl, or 0.0625 nM c-Mer (Carna Biosciences, 08-108), or 0.366 nM Tyro3 (Life Technologies, PR7480A) were prepared in assay buffer. A 1 mM stock solution of peptide substrate Biotin-[…]-amide SEQ ID NO: 1 (Quality Controlled Biochemicals, MA) dissolved in DMSO was diluted to 1 uM in assay buffer containing 2000 uM ATP. 4 ul enzyme solution (or assay buffer for the enzyme blank) was added to the appropriate wells in each plate, and then 4 ul/well substrate solution was added to initiate the reaction. The plate was protected from light and incubated at room temperature for 60 min. […] The plate was incubated for 1 h at room temperature, and HTRF (homogenous time resolved fluorescence) signal was measured on a PHERAstar FS plate reader (BMG labtech). Percentage of inhibition was calculated for each concentration and IC50 value was generated from curve fitting with GraphPad Prism software.

Structure (SMILES): CC(C)C(=O)N1CCC(c2cc(-c3ccc(NC(=O)c4cn(C(C)C)c(=O)n(-c5ccccn5)c4=O)cc3)c3c(N)ncnn23)CC1 [US11241438, Compound I]
- IC50: 0.055 µM

Reference: BindingDB's records for patent US11241438 (Incyte Corporation, 2022)
